Experimental data taken from patent US20250052769A1, “MIMOTOPES OF ARA H 2 AND USES OF THE SAME TO DIAGNOSE PEANUT ALLERGIES” (The Regents of the University of Colorado, A Body Corporate, priority 2023, published 2025).
“Also recorded” adds a separate entry of the source. Non-standard residues stand in square brackets, D forms with d. No end group written: not given here. Hyp = O=C(O)[C@@H]1C[C@@H](O)CN1

Key:
[1] = test system: Ara h 2-specific IgE; assay: Biotin/streptavidin ELISA of serum IgE binding to peptides; design: species or system human; details: for IgE binding by ELISA, Biotide peptides: serum pool at 10 IU/ml Ara h 2-sIgE, 20-30% pure Biotide peptides at 1 nM, Bt-anti-HuIgE 1:3,000 (FIG. 5A, 6A); for IgE binding by ELISA, purified peptides: serum pool at 10 IU/ml, 95-97% pure peptides at 5 nM, Bt-anti-HuIgE 1:500 (FIG. 5B, 6B)
Excerpt: (§1) To produce the serum pool, 10 individual sera were pooled with the concentration of Ara h 2-sIgE normalized so that no one serum was predominant (Table 2). Seven sera were studied in detail, 3 of these were included in the serum pool and 4 independent of the serum pool (Table 2). The Colorado Multiple Institutional Review Board (COMIRB) approved this study. All adult patients and the parents or guardians of minors gave written informed consent. Minors who were >6 years of age, signed an assent.
(§2) Peptides for ELISAs were synthesized with an N-terminal linker arm (Ttds; JPT Peptides, Berlin) followed by biotin at the N terminus. Prior to generating microarrays with high fidelity sequences, we performed screening assays using the Biotide approach (JPT Peptides, Berlin) in which multiple related peptides are synthesized in a cost-effective manner at approximately 20% purity. For validation, selected peptides were also synthesized by standard methods and purified (95-97% pure) by HPLC (JPT Laboratories, Berlin). For all peptides of epitope 3 and the related mimotope studied here, trans-4-hydroxyproline (h) was substituted for second proline in the DPY_P motif as this substitution may enhance binding of IgE. Peptides for microarray assays were synthesized with the Ttds linker arm on the N terminus and printed onto microscope slides treated with a proprietary 3-dimensional surface by JPT Peptides (Berlin).
Streptavidin (InVitrogen) (5 μg/ml) was bound to micro titer plates by overnight incubation in PBS, the plates were washed once with PBST (0.05% Tween 20) and 50 μL of peptides were added at a final concentration of 1-5 nM in PBST for 1 hour at room temperature. Unoccupied streptavidin sites were then saturated with 400 μM biotin in PBS and the samples were probed with diluted sera from allergic subjects diluted in PBST with 0.1% albumin to contain 10 IU/ml of Ara h 2-sIgE. After overnight incubation at 4° C., slides were washed, incubated with HRP-labeled murine monoclonal anti-human IgE (clone HP6029; Southern Biotech 1:500-1:3,000), washed again and developed with TMB (ThermoFisher Scientific). Background binding of serum without peptide (OD=approximately 0.100) was subtracted. We also examined the background of peptide without serum and this was similar to, or lower than, the background of serum without peptide.
(§3) GraphPad Prism (versions 8.4-9.5 for the Macintosh (GraphPad; La Jolla, CA)) was used to generate graphs and for statistical analysis. The following analyses were performed: 1) for dose response curves, multiple unpaired t test with Welch correction for unequal variances; 2) to combine data from multiple assays, the data were normalized within each assay based on IgE binding to the native sequence (epitope 3) or the original sequence (mimotope A147) and expressed binding as percent of binding and 3) to compare differences in IgE binding for a specific alanine substitution, one way ANOVA followed by Dunnet's multiple comparison test.

[2] = test system: Ara h 2-specific IgE; assay: Peptide microarray of serum IgE binding (dose response and alanine scans); design: species or system human
Excerpt: as §1, §2
Each microscope slide contained 21 microarrays and within each microarray, peptides were printed in triplicate. 10-15 spots were not printed with any peptide as control spots. Sera were diluted to contain the same concentrations of Ara h 2-sIgE (usually 10 IU/ml) or at various concentrations for dose response assays and assayed in duplicate arrays on 3-4 separate days as previously described except for use of biotinylated anti-IgE (clone HP6029 from Southern Biotech at 1:1,000). For each microarray assay, the density units of three observations within each microarray were averaged and then the data from duplicate microarrays were averaged. To combine data from multiple independent assays, the signal within each assay was normalized to that of a wild-type peptide and the signal was expressed as a percent of that with the original peptide. Background binding of serum without peptide (300-500 AU) was subtracted. We also examined the background of peptide without serum. Only for the mimotope, this background was higher than the background of serum without peptide and these values (5,000-10,000 AU), which were quite high, were subtracted from the signal of serum with peptide (which bound IgE very strongly (20,000-30,000 AU), instead of subtracting the background of serum without peptide.
Linear sequences of epitope 3 and the mimotope as well as derivative peptides in which each amino acid was sequentially changed to alanine were studied.
as §3

DEDSYERDPYShSQDP (DEDSYERDPYS[Hyp]SQDP) [Epitope 3-Core]
IgE binding by ELISA, Biotide peptides [1]: bind IgE almost as well as the 20mer sequence
IgE binding by ELISA, purified peptides [1]: bound similar amounts of IgE; also recorded: No significant differences were seen; also recorded: strong binding

ERDPYShSQDPYShSPYDRR (ERDPYS[Hyp]SQDPYS[Hyp]SPYDRR) [20mer version of epitope 3]
IgE binding by ELISA, purified peptides [1]: bound similar amounts of IgE

LLDPYAPRAWTK [A147]
IgE binding by ELISA, Biotide peptides [1]: did not bind IgE well

LLDPYAhRAWTK (LLDPYA[Hyp]RAWTK) [mimotope with P->h]
Microarray signal of serum with peptide ([2]; before background subtraction): 20,000-30,000 AU
IgE binding in microarray format at Ara h 2 sIgE of 0.3 kU/L ([2]; serum pool at 0.3 kU/L Ara h 2 sIgE, p<0.05 (FIG. 7)): bound significantly more IgE than did Epitope 3-Core
IgE binding in microarray format, dose response of serum ([2]; serum pool at various doses, P substituted with h in all peptides (FIG. 7)): tended to bind more IgE at lower doses of serum
IgE binding by ELISA, Biotide peptides [1]: bound more IgE at all doses than did the original mimotope
IgE binding by ELISA, Biotide peptides ([1]; listed as SEQ ID NO:2): binding was dramatically enhanced
IgE binding by ELISA, purified peptides [1]: No significant differences were seen
IgE binding by ELISA, purified peptides ([1]; listed as SEQ ID NO:2): bound similar amounts of IgE as did Epitope 3-Core
IgE binding by ELISA, purified peptides ([1]; listed as substituted mimotope): bound amounts of IgE similar to that of the Epitope 3-Core peptide

Y10: Epitope 3-Core (DEDSYERDPYShSQDP) with amino acid Y10 changed to alanine (DEDSYERDPAS[Hyp]SQDP)
Relevance of the residue for IgE binding, alanine scan of Epitope 3-Core with individual sera ([2]; 7 individual sera (FIG. 2B)): relevant for most sera
IgE binding after alanine substitution, density units normalized to WT sequence ([2]; alanine scan of Epitope 3-Core, serum pool at 10 IU/ml Ara h 2-sIgE, percent of WT signal (FIG. 1B)): 9±6%
